{"source": "patent US20050187196A1", "about": "“Treatment of attention disorders” (Saegis Pharmaceuticals, Inc., priority 2004, published 2005)", "key": {"[1]": {"tested_on": "striatal dopamine release", "conditions": "administration in the substantia nigra pars reticulata (SNr); cited from earlier work"}, "patients with MCI": {"tested_on": "patients with MCI", "assay": "CANTAB tests of psychomotor speed, clinical trials", "type": "in vivo, human", "experimental": "(§1) A clinical trial was initiated to determine the effect of the GABAB receptor antagonist, ABPA, on specific tests of cognition in non-demented older individuals with diminished memory function who met prospective criteria for mild cognitive impairment (MCI). Patients aged 60-85 with MCI enrolled in this double-blind, randomized trial. Patients were randomized to ABPA (600 mg tid) or placebo for 8 weeks. Verbal, paper and computer tests of memory and cognition were made by trained assessors at baseline (before administration of ABPA or placebo) and after 2, 5, and 8 weeks of treatment. Among these were selected tests from the Cambridge Neuropsychological Test Automated Battery (CANTAB), a computerized battery of tests for neuropsychological evaluation (Robbins et al., 1994, “Cambridge Neuropsychological Test Automated Battery (CANTAB): A factor analytic study of a large sample of normal elderly volunteers,” Dementia 5:266-281). Tests assessing memory, attention and psychomotor speed were administered to the patient by a neuropsychologist or equivalent via a computer with a touch screen, thus testing the individual's cognitive performance rather than ability to use a computer. CANTAB tests have been proven to be highly sensitive and specific in differentiating patients with a number of neurological conditions from each other and from normal controls."}, "[2]": {"tested_on": "patients with mild cognitive impairment (MCI)", "assay": "Five Choice Reaction Time test (CANTAB), clinical trial", "type": "in vivo, human", "conditions": "600 mg tid", "experimental": "as §1\n110 patients were randomized; 75 were administered ABPA and 35 were administered placebo (56% men; mean age: 74 years).\nThe Five Choice Reaction Time test measures the speed of response to the appearance of a visual stimulus. Patients rested their hand on a press-pad placed on the desk directly in front of the computer screen, holding down the press-pad until a brief yellow flash appeared in 1 of the 5 circles located at various positions around the screen. […] The computer recorded 2 measures of response speed: reaction time, which was the time taken to lift the hand from the press-pad, and movement time, which was the latency from press-pad release to the time that the screen was touched. […]"}, "[3]": {"tested_on": "wildtype mice (C3H/HeSNJ)", "assay": "Open field test, wildtype mice", "type": "in vivo, mouse", "conditions": "for locomotor activity of wildtype controls: final 30 min", "text": "(§2) Male and female mice heterozygous for the coloboma spontaneous mutation (C3H/HeSnJ-Cm/J) and wild type (C3H/HeSNJ) mice from Jackson Laboratories (Bar Harbor, Me.) were used in this study. Upon receipt, mice were assigned unique identification numbers (tail marked) and were housed in polycarbonate cages with filter tops. All mice were acclimated to the colony room for at least two weeks prior to testing. During the period of acclimation, mice were examined on a regular basis, handled, and weighed to assure adequate health and suitability. Mice were maintained on a 12/12 light/dark cycle. Chow and water were provided ad libitum for the duration of the study. In each test, animals were randomly assigned across treatment groups and balanced by age and by gender. Animals were not disturbed between test days.\n(§3) The open field test (OF) is used to assess both anxiety-like behavior and motor activity. The open field chambers are Plexiglas square chambers (27.3×27.3×20.3 cm; Med Associates Inc., St Albans, Vt.) surrounded by infrared photobeam sources (16×16×16). The enclosure was configured to split the open field into a center and periphery zone and the photocell beams were set to measure activity in the center and in the periphery of the OF chambers. Animals having higher levels of anxiety or lower levels of activity tend to stay in the corners of the OF enclosures. On the other hand, mice that have high levels of activity and low levels of anxiety tend to spend more time in the center of the enclosure. Distance traveled is measured from consecutive beam breaks. Measures of peripheral or central distance covered during locomotion were used as an index of activity.\nABPA (0.3, 3 and 30 mg/kg) and atomoxetine (0.1 mg/kg) were dissolved in saline and administered i.p. at the injection volume of 10 ml/kg. Mice were pretreated with saline, ABPA, or atomoxetine for 30 min, after which their behavior was recorded in the OF chambers for a 60-min test session. At the end of each open field test session the OF chambers were thoroughly cleaned with Clorox wipes. Mice were returned to their home cage after testing and then to the colony room. Mice were retested every week. […] Data were analyzed by analysis of variance (ANOVA), followed by Fisher PLSD post-hoc analysis when appropriate. […]\nSince the effects of all drugs reached a stable response by 20-30 min following the start of the experiment, the data was analyzed in 2 time periods: 1) total 60 min test session and 2) the last 30 min of the test session. The quantified data over the final 30 min time period are presented. […] As measured by total distance traveled, the coloboma mice had roughly 6- to 10-fold higher saline-induced activity compared to the wildtype mice (11,246±3213 centimeters vs. 1035±252 centimeters, FIGS. 3A and 3B)."}, "[4]": {"tested_on": "coloboma mutant mice (Cm/+)", "assay": "Open field test, coloboma mutant mice", "type": "in vivo, mouse", "conditions": "for frequency of zone crossings / total distance traveled / locomotor activity: final 30 min", "text": "as §2, §3\nABPA (0.3, 3 and 30 mg/kg) and atomoxetine (0.1 mg/kg) were dissolved in saline and administered i.p. at the injection volume of 10 ml/kg. Mice were pretreated with saline, ABPA, or atomoxetine for 30 min, after which their behavior was recorded in the OF chambers for a 60-min test session. At the end of each open field test session the OF chambers were thoroughly cleaned with Clorox wipes. Mice were returned to their home cage after testing and then to the colony room. Mice were retested every week. The washout period between tests ranged from 3-7 days. Data were analyzed by analysis of variance (ANOVA), followed by Fisher PLSD post-hoc analysis when appropriate. An effect was considered significant if p<0.05. Outliers that fell above and below two standard deviations away from the mean were removed from the final analysis.\nSince the effects of all drugs reached a stable response by 20-30 min following the start of the experiment, the data was analyzed in 2 time periods: 1) total 60 min test session and 2) the last 30 min of the test session. The quantified data over the final 30 min time period are presented. Repeated measure ANOVA found a significant genotype and drug interaction over both time periods. As measured by total distance traveled, the coloboma mice had roughly 6- to 10-fold higher saline-induced activity compared to the wildtype mice (11,246±3213 centimeters vs. 1035±252 centimeters, FIGS. 3A and 3B)."}, "GABAC receptor": {"tested_on": "GABAC receptor", "conditions": "reported in U.S. Pat. No. 6,632,806; cited from earlier work"}, "[5]": {"tested_on": "patients with mild cognitive impairment (MCI)", "assay": "Rapid Visual Information Processing (RVIP) test (CANTAB), clinical trial", "type": "in vivo, human", "conditions": "600 mg tid", "experimental": "A clinical trial was initiated to determine the effect of the GABAB receptor antagonist, ABPA, on specific tests of cognition in non-demented older individuals with diminished memory function who met prospective criteria for mild cognitive impairment (MCI). Patients aged 60-85 with MCI enrolled in this double-blind, randomized trial. Patients were randomized to ABPA (600 mg tid) or placebo for 8 weeks. Verbal, paper and computer tests of memory and cognition were made by trained assessors at baseline (before administration of ABPA or placebo) and after 2, 5, and 8 weeks of treatment. Among these were selected tests from the Cambridge Neuropsychological Test Automated Battery (CANTAB), a computerized battery of tests for neuropsychological evaluation (Robbins et al., 1994, “Cambridge Neuropsychological Test Automated Battery (CANTAB): A factor analytic study of a large sample of normal elderly volunteers,” Dementia 5:266-281). […]\nThe Rapid Visual Information Processing (RVIP) test is a test of sustained attention with a small working memory component. […] Responses were recorded with a button press. Reaction time, or mean hit latency, for all correct responses was recorded, as were additional signal detection measures (e.g., total hits, total misses and total false alarms). […]"}, "[6]": {"tested_on": "dopamine (DA) neurons in the ventral tegmental area (VTA)", "conditions": "systemic administration; cited from earlier work"}, "wildtype mice": {"tested_on": "wildtype mice", "conditions": "d-amphetamine at the same dose as in coloboma mice; cited from earlier work"}, "coloboma mice (Cm/+)": {"tested_on": "coloboma mice (Cm/+)", "conditions": "open field test; d-amphetamine at low doses; cited from earlier work"}, "[7]": {"tested_on": "coloboma mutant mice (Cm/+)", "assay": "Open field test, coloboma mutant mice", "type": "in vivo, mouse", "conditions": "parallel experiments"}, "[8]": {"tested_on": "patients diagnosed with adult ADHD", "conditions": "cited from earlier work"}}}
{"compound": "NCCCCC(=O)O", "note": "[5-AVA]", "values": [{"measurement": "dopamine release in the striatum", "setting": "[1]", "value": "increase dopamine release in the striatum"}]}
{"compound": "CCCCP(=O)(O)CCCN", "note": "[ABPA, 3-aminopropyl-(n-butyl)-phosphinic acid]", "values": [{"measurement": "psychomotor speed", "setting": "patients with MCI", "value": "significant improvements in psychomotor speed"}, {"measurement": "mean reaction time, change compared to baseline", "setting": "[2]; 8 weeks, p=0.002 vs placebo (+9.4)", "value": "−19.7", "unit": "milliseconds"}, {"measurement": "reaction time vs baseline", "setting": "[2]; Week 2, p=0.074 vs placebo", "value": "Decreased reaction time"}, {"measurement": "reaction time vs baseline", "setting": "[2]; Week 5, p=0.070 vs placebo", "value": "Decreased reaction time"}, {"measurement": "locomotor activity of wildtype controls", "setting": "[3]; 3 mg/kg i.p.", "value": "no effect on the activity of wildtype controls"}, {"measurement": "locomotor activity of wildtype controls", "setting": "[3]; 30 mg/kg i.p.", "value": "no effect on the activity of wildtype controls"}, {"measurement": "frequency of zone crossings", "setting": "[4]; 0.3 mg/kg i.p., p=0.04, to within range of saline-treated wildtype", "value": "significant decrease in the frequency of zone crossings"}, {"measurement": "total distance traveled / locomotor activity", "setting": "[4]; 0.3 mg/kg i.p., p=0.07", "value": "strong trend to decreasing the activity"}, {"measurement": "total distance traveled / locomotor activity", "setting": "[4]; 3 mg/kg i.p., p=0.03", "value": "significantly decreased locomotor activity levels"}, {"measurement": "frequency of zone crossings", "setting": "[4]; 3 mg/kg i.p., p=0.06", "value": "strong trend to decreasing the zone crossings"}, {"measurement": "total distance traveled / locomotor activity", "setting": "[4]; 30 mg/kg i.p., p=0.03", "value": "significantly decreased locomotor activity levels"}, {"measurement": "frequency of zone crossings", "setting": "[4]; 30 mg/kg i.p., p=0.04, to within range of saline-treated wildtype", "value": "significant decrease in the frequency of zone crossings"}, {"measurement": "GABAC receptor antagonism", "setting": "GABAC receptor", "value": "antagonize"}, {"measurement": "mean hit latency, mean change from Baseline", "setting": "[5]; Week 5, p=0.03 vs placebo (+15.0)", "value": -37.3, "unit": "ms"}, {"measurement": "mean hit latency, mean change from Baseline", "setting": "[5]; Week 8, p=0.02 vs placebo (−5.9)", "value": -61.6, "unit": "ms"}]}
{"compound": "CCOC(OCC)P(=O)(O)CCCN", "note": "[CGP 35348]", "values": [{"measurement": "burst firing of VTA dopamine neurons", "setting": "[6]", "value": "long-lasting increase in burst firing"}]}
{"compound": "CNCC[C@@H](Oc1ccccc1C)c1ccccc1", "note": "[atomoxetine]", "values": [{"measurement": "activity levels of wildtype mice", "setting": "wildtype mice", "value": "without affecting activity levels"}, {"measurement": "frequency of zone crossings", "setting": "[4]; 0.1 mg/kg i.p., p=0.06", "value": "strong trend to decreasing the zone crossings"}, {"measurement": "total distance traveled", "setting": "[4]; 0.1 mg/kg i.p., final 30 min of 60-min session, vs saline-treated Cm mutants, p=0.03", "value": "significantly decreased total distance traveled"}, {"measurement": "activity levels / hyperactivity of coloboma mice", "setting": "coloboma mice (Cm/+)", "value": "reduces hyperactivity"}]}
{"compound": "NCC(CC(=O)O)c1ccc(Cl)cc1", "note": "(stereo not drawn) [baclofen]", "values": [{"measurement": "dopamine release in the striatum", "setting": "[1]", "value": "decrease in striatal dopamine"}]}
{"compound": "C[C@H](N)Cc1ccccc1", "note": "[d-amphetamine, dextro-amphetamine]", "values": [{"measurement": "activity levels of wildtype mice", "setting": "wildtype mice", "value": "profound increases in activity"}, {"measurement": "activity in coloboma mice", "setting": "[7]; 0.5 mg/kg", "value": "did not reduce activity"}, {"measurement": "activity in coloboma mice", "setting": "[7]; 1 mg/kg", "value": "did not reduce activity"}, {"measurement": "activity in coloboma mice", "setting": "[7]; 4 mg/kg", "value": "did not reduce activity"}, {"measurement": "frequency of rearing", "setting": "[7]; 4 mg/kg", "value": "did reduce the frequency of rearing"}, {"measurement": "activity in control (wildtype) mice", "setting": "[3]; parallel experiments", "value": "did increase activity"}, {"measurement": "rearing frequency in control (wildtype) mice", "setting": "[3]; parallel experiments", "value": "no effect on rearing frequency"}, {"measurement": "activity levels / hyperactivity of coloboma mice", "setting": "coloboma mice (Cm/+)", "value": "reduced"}]}
{"compound": "COC(=O)C(c1ccccc1)C1CCCCN1", "note": "(stereo not drawn) [methylphenidate]", "values": [{"measurement": "activity levels of wildtype mice", "setting": "wildtype mice", "value": "increasing locomotor activity"}, {"measurement": "performance in the RVIP test", "setting": "[8]", "value": "improve performance in the RVIP test"}, {"measurement": "activity levels / hyperactivity of coloboma mice", "setting": "coloboma mice (Cm/+)", "value": "failed to normalize the hyperactivity"}]}
